Results published in US9249157B2, “Tricyclic heterocycle compounds” (BRISTOL-MYERS SQUIBB COMPANY, priority 2012, dated 2016).

Key:
human Notch 3 = assay: Notch-CBF1 Transactivation Assay (Notch 3); format: cell-based; settings: HeLa cells transfected with truncated Notch 3 and CBF1 luciferase reporter; 18 hours incubation
From the text: (§1) Notch-CBF1 Transactivation Assay
(§2) The Notch-CBF1 (C-promoter binding factor I) cell based transactivation assay is based on the ability of the released Notch intracellular domain fragments (NICDs) to function as transcription factors in conjunction with CBF1 and other nuclear factors. Luciferase assays were used to measure the antagonism of Notch-CBF1 transcriptional activity. HeLa cervical cancer cells are transiently co-transfected with pCDNA3.1/Hygro plasmids containing truncated Notch 1, Notch 2, Notch 3, or Notch 4 receptors and a PGL3 luciferase reporter vector containing 4 copies of CBF1 binding site. The cells were then tested for Notch-CBF1 activity in the absence or presence of test compounds. HeLa cells, maintained in DMEM (high glucose with HEPES), 1× glutamine/penicillin/streptomycin and 10% Fetal Bovine serum, were transiently transfected in a T175 Flask (4.5×10^6 cells/flask) using the Monster Transfection Kit (Minis #MIR2906) according to manufacturers specifications. Table 1 denotes respective DNA quantity for the transfections.
(§3) Six hours post-transfection, cells were trypsinized and plated into a 384-well black Poly-D-lysine coated tissue culture plate at a density of 5×10^3 cells/well in 95 μL assay media (DMEM (high glucose with HEPES), 1× glutamine/penicillin/streptomycin, 0.0125% BSA, 1× non-essential amino acids). Assay media (5 μL) containing test compounds in final concentrations ranging from 5 μM to 8.4×10^−5 μM (3 fold serial dilutions) were added to the cells and the cell plates were then incubated for 18 hours at 37° C. and 5% CO2. Control wells contained DMSO vehicle (total counts) or 0.5 μM of an in-house small molecule inhibitor (background counts). Duplicates were used for each sample. Luciferase activity was measured after a 20-minute incubation with 50 μl STEADY-GLO® luciferase reagents according to manufacturer's specifications (Promega, Cat. #E2550) and analyzed by Envision plate reader (PerkinElmer, Boston, Mass.).
(§4) The antagonist effect of compounds was expressed as 100×[1−(average sample−average background)/(average total−average background)] where sample is the luciferase activity in the presence of test compound, background is equal to the luciferase activity in the presence of the small molecule inhibitor control and the total is signal induced in DMSO wells.

human Notch 1 = assay: Notch-CBF1 Transactivation Assay (Notch 1); format: cell-based; settings: HeLa cells transfected with truncated Notch 1 and CBF1 luciferase reporter; 18 hours incubation
From the text: as §1, §2, §3, §4

human tumor xenografts = assay: Human Tumor Xenograft Models in Mice (tumor type not stated); format: in vivo; settings: for antitumor activity with oral administration (PO): Human Tumor Xenograft Models in mice
From the text: Human Tumor Xenograft Models in Mice
All rodents were obtained from Harlan Sprague Dawley Co. (Indianapolis, Ind.), and maintained in an ammonia-free environment in a defined and pathogen—free colony. All mice were quarantined approximately 1 week prior to their use for tumor propagation and drug efficacy testing. Mice were fed food and water ad libitum. The animal care program of Bristol-Myers Squibb Pharmaceutical Research Institute is fully accredited by the American Association for Accreditation of Laboratory Animal Care (AAALAC). All experiments were performed in accordance with Bristol-Myers Squibb (BMS) animal test methods and guidelines.
Tumor xenografts were grown and maintained subcutaneously (SC) in immunocompromized balb/c nu/nu nude or NOD-SCID mice (Harlan Sprague Dawley). Tumors were propagated as subcutaneous transplants in the appropriate mouse strain (Table 10) using tumor fragments obtained from donor mice.
The required numbers of animals needed to detect a meaningful response were pooled at the start of the experiment and each was given a subcutaneous implant of a tumor fragment (˜20 mg) with a 13-gauge trocar. Tumors were allowed to grow to the pre-determined size window (tumors outside the range were excluded) and animals were evenly distributed to various treatment and control groups. […]
Tumor response was determined by measurement of tumors with a caliper twice a week, until the tumors reached a predetermined “target” size of 0.5 gm or 1 gm depending on the tumor type. […]
Tumor response criteria are expressed in terms of tumor growth inhibition (% TGI). […] For this purpose, the tumor weight of a group is expressed as medium tumor weight (MTW).
Whenever possible, antitumor activity was determined at a range of dose levels up to the maximum tolerated dose (MTD) which is defined as the dose level immediately below which excessive toxicity (i.e., more than one death) occurred. When death occurred, the day of death was recorded. […]

| SMILES | IC50 (human Notch 3) [µM] | IC50 (human Notch 1) [µM] | antitumor activity with oral administration (PO) (human tumor xenografts) | antitumor activity, intravenous route (IV) (human tumor xenografts; human tumor xenografts implanted in mice, IV) |
| --- | --- | --- | --- | --- |
| NC(=O)[C@@H](CC1CC1)[C@@H](CCC(F)(F)F)C(=O)N[C@H]1N=C(c2ccccc2)c2cccc3c2N(CCO3)C1=O [Example 6, (2R,3S)-3-(Cyclopropylmethyl)-N-((6S)-5-oxo-8-phenyl-2,3,5,6-tetrahydro[1,4]oxazino[2,3,4-jk][1,4]benzodiazepin-6-yl)-2-(3,3,3-trifluoropropyl)succinamide] | 0.0148 |  |  |  |
| Cc1nocc1[C@H](C(N)=O)[C@@H](CCC(F)(F)F)C(=O)N[C@H]1N=C(c2ccccc2)c2cccc3c2N(CCN3)C1=O [Example 24, (2R,3R)-3-(3-Methyl-4-isoxazolyl)-N-((6S)-5-oxo-8-phenyl-2,3,5,6-tetrahydro-1H-[1,4]diazepino[1,7,6-de]quinoxalin-6-yl)-2-(3,3,3-trifluoropropyl)succinamide] | 0.0283 | 0.0169 |  |  |
| NC(=O)[C@@H](CC1CC1)[C@@H](CCC(F)(F)F)C(=O)N[C@H]1N=C(c2ccccc2)c2cccc3c2N(CCCO3)C1=O [Example 23, (2R,3S)-3-(Cyclopropylmethyl)-N-((7S)-6-oxo-9-phenyl-3,4,6,7-tetrahydro-2H-[1,4]diazepino[1,7,6-ef][1,5]benzoxazepin-7-yl)-2-(3,3,3-trifluoropropyl)succinamide] | 0.0142 |  |  |  |
| CCC[C@@H](C(=O)N[C@H]1N=C(c2ccccc2)c2cccc3c2N(CCO3)C1=O)[C@H](CCC(F)(F)F)C(N)=O [Example 17, (2R,3S)—N-((6S)-5-Oxo-8-phenyl-2,3,5,6-tetrahydro[1,4]oxazino[2,3,4-jk][1,4]benzodiazepin-6-yl)-2-propyl-3-(3,3,3-trifluoropropyl)succinamide] | 0.0201 | 0.0139 |  |  |
| Cc1nocc1[C@H](C(N)=O)[C@@H](CCC(F)(F)F)C(=O)N[C@H]1N=C(c2ccccc2)c2cccc3c2N(CC(F)(F)CO3)C1=O [Example 1, (2R,3R)—N-((7S)-3,3-Difluoro-6-oxo-9-phenyl-3,4,6,7-tetrahydro-2H-[1,4]diazepino[1,7,6-ef][1,5]benzoxazepin-7-yl)-3-(3-methyl-4-isoxazolyl)-2-(3,3,3-trifluoropropyl)succinamide] |  |  | showed antitumor activity | exhibited antitumor activity |
| Cc1cccc(C2=N[C@H](NC(=O)[C@H](CCC(F)(F)F)[C@H](CCC(F)(F)F)C(N)=O)C(=O)N3CCOc4cccc2c43)c1 [Example 11, (2R,3S)—N-((6S)-8-(3-Methylphenyl)-5-oxo-2,3,5,6-tetrahydro[1,4]oxazino[2,3,4-jk][1,4]benzodiazepin-6-yl)-2,3-bis(3,3,3-trifluoropropyl)succinamide] | 0.0147 |  |  |  |
| CCC[C@H](C(N)=O)[C@@H](CCC(F)(F)F)C(=O)N[C@H]1N=C(c2cccc(Cl)c2)c2cccc3c2N(CCO3)C1=O [Example 15, (2R,3S)—N-((6S)-8-(3-Chlorophenyl)-5-oxo-2,3,5,6-tetrahydro[1,4]oxazino[2,3,4-jk][1,4]benzodiazepin-6-yl)-3-propyl-2-(3,3,3-trifluoropropyl)succinamide] | 0.0283 | 0.0169 |  |  |
| NC(=O)[C@@H](c1ccccc1)[C@@H](CCC(F)(F)F)C(=O)N[C@H]1N=C(c2ccccc2)c2cccc3c2N(CCN3)C1=O [Example 27, (2R,3R)—N-((6S)-5-Oxo-8-phenyl-2,3,5,6-tetrahydro-1H-[1,4]diazepino[1,7,6-de]quinoxalin-6-yl)-3-phenyl-2-(3,3,3-trifluoropropyl)succinamide] |  | 0.0151 |  |  |
| NC(=O)[C@@H](CC1CC1)[C@@H](CCC(F)(F)F)C(=O)N[C@H]1N=C(c2ccccc2)c2cccc3c2N(CC(F)(F)CO3)C1=O [Example 2, (2R,3S)-3-(Cyclopropylmethyl)-N-((7S)-3,3-difluoro-6-oxo-9-phenyl-3,4,6,7-tetrahydro-2H-[1,4]diazepino[1,7,6-ef][1,5]benzoxazepin-7-yl)-2-(3,3,3-trifluoropropyl)succinamide] |  |  | showed antitumor activity |  |
| NC(=O)[C@@H](CC1CC1)[C@@H](CC1CC1)C(=O)N[C@H]1N=C(c2ccccc2)c2cccc3c2N(CCO3)C1=O [Example 18, (2R,3S)-2,3-Bis(cyclopropylmethyl)-N-((6S)-5-oxo-8-phenyl-2,3,5,6-tetrahydro[1,4]oxazino[2,3,4-jk][1,4]benzodiazepin-6-yl)succinamide] | 0.0164 | 0.0219 |  |  |
| CCC[C@H](C(N)=O)[C@@H](CCC(F)(F)F)C(=O)N[C@H]1N=C(c2ccccc2)c2cccc3c2N(CCN3)C1=O [Example 25, (2R,3S)—N-((6S)-5-Oxo-8-phenyl-2,3,5,6-tetrahydro-1H-[1,4]diazepino[1,7,6-de]quinoxalin-6-yl)-3-propyl-2-(3,3,3-trifluoropropyl)succinamide] | 0.0169 | 0.0145 |  |  |
| Cc1cccc(C2=N[C@H](NC(=O)[C@H](CCC(F)(F)F)[C@@H](C(N)=O)c3ccccc3)C(=O)N3CCOc4cccc2c43)c1 [Example 13, (2R,3R)—N-((6S)-8-(3-Methylphenyl)-5-oxo-2,3,5,6-tetrahydro[1,4]oxazino[2,3,4-jk][1,4]benzodiazepin-6-yl)-3-phenyl-2-(3,3,3-trifluoropropyl)succinamide] |  | 0.0148 |  |  |
| NC(=O)[C@@H](CCCF)[C@@H](CCC(F)(F)F)C(=O)N[C@H]1N=C(c2ccccc2)c2cccc3c2N(CCO3)C1=O [Example 8, (2R,3S)-3-(3-Fluoropropyl)-N-((6S)-5-oxo-8-phenyl-2,3,5,6-tetrahydro[1,4]oxazino[2,3,4-jk][1,4]benzodiazepin-6-yl)-2-(3,3,3-trifluoropropyl)succinamide] | 0.0281 | 0.0148 |  |  |
